Experimental data reported in ChEMBL document CHEMBL1144896 (2003).

Columns and labels:
BJ [1] = assay: Compound was tested for human telomerase reverse transcriptase-SEAP (hTERT-SEAP) activity in immortalized hTERT-BJI at 220.0 uM concentration; type: functional
BJ [2] = assay: Compound was tested for human telomerase reverse transcriptase-SEAP (hTERT-SEAP) activity in immortalized hTERT-BJI at 2.2 uM concentration; type: functional
BJ [3] = assay: Compound was tested for human telomerase reverse transcriptase-SEAP (hTERT-SEAP) activity in immortalized hTERT-BJI at 22 uM concentration; type: functional
BJ [4] = assay: Compound was tested for cytomegalovirus or (pPCMV-SEAP) activity in immortalized hTERT-BJ1 at 22 uM concentration; type: functional, Homo sapiens
NCI-H1299 [5] = assay: hTERT-SEAP (Human telomerase reverse transcriptase-SEAP) activity in non-small cell lung cancer H1299 cell at 220.0 uM concentration and level of cell viability determined in MTT assay; type: functional
BJ [6] = assay: Compound was tested for cytomegalovirus or (pPCMV-SEAP) activity in immortalized hTERT-BJ1 at 220 uM concentration; type: functional, Homo sapiens
BJ [7] = assay: hTERT-SEAP (Human telomerase reverse transcriptase-SEAP) activity in immortalized hTERT-BJI at 220.0 uM concentration and level of cell viability determined in MTT assay; type: functional
NCI-H1299 [8] = assay: Compound was tested for human telomerase reverse transcriptase-SEAP (hTERT-SEAP) activity in non-small cell lung cancer H1299 cell at 220.0 uM concentration; type: functional
BJ [9] = assay: hTERT-SEAP (Human telomerase reverse transcriptase-SEAP) activity in immortalized hTERT-BJI at 2.2 uM concentration and level of cell viability determined in MTT assay; type: functional
BJ [10] = assay: pPCMV-SEAP (cytomegalovirus-SEAP) activity in immortalized hTERT-BJ1 at 22 uM concentration and level of cell viability determined in MTT assay; type: functional, Homo sapiens
BJ [11] = assay: pPCMV-SEAP (cytomegalovirus-SEAP) activity in immortalized hTERT-BJ1 at 220 uM concentration and level of cell viability determined in MTT assay; type: functional, Homo sapiens
NCI-H1299 [12] = assay: Compound was tested for human telomerase reverse transcriptase-SEAP (hTERT-SEAP) activity in non-small cell lung cancer H1299 cell at 22 uM concentration; type: functional
NCI-H1299 [13] = assay: Compound was tested for human telomerase reverse transcriptase-SEAP (hTERT-SEAP) activity in non-small cell lung cancer H1299 cell at 2.2 uM concentration; type: functional
BJ [14] = assay: pPCMV-SEAP (cytomegalovirus-SEAP) activity in immortalized hTERT-BJ1 at 2.2 uM concentration and level of cell viability determined in MTT assay; type: functional, Homo sapiens
BJ [15] = assay: Compound was tested for cytomegalovirus or (pPCMV-SEAP) activity in immortalized hTERT-BJ1 at 2.2 uM concentration; type: functional, Homo sapiens
BJ [16] = assay: hTERT-SEAP (Human telomerase reverse transcriptase-SEAP) activity in immortalized hTERT-BJI at 22 uM concentration and level of cell viability determined in MTT assay; type: functional
NCI-H1299 [17] = assay: hTERT-SEAP (Human telomerase reverse transcriptase-SEAP) activity in non-small cell lung cancer H1299 cell at 22 uM concentration and level of cell viability determined in MTT assay; type: functional
NCI-H1299 [18] = assay: hTERT-SEAP (Human telomerase reverse transcriptase-SEAP) activity in non-small cell lung cancer H1299 cell at 2.2 uM concentration and level of cell viability determined in MTT assay; type: functional
NCI-H1299 [19] = assay: Compound was tested for human telomerase reverse transcriptase-SEAP (hTERT-SEAP) activity in non-small cell lung cancer H1299 cell at 28.0 uM concentration; type: functional
NCI-H1299 [20] = assay: hTERT-SEAP (Human telomerase reverse transcriptase-SEAP) activity in non-small cell lung cancer H1299 cell at 2.8 uM concentration and level of cell viability determined in MTT assay; type: functional
NCI-H1299 [21] = assay: hTERT-SEAP (Human telomerase reverse transcriptase-SEAP) activity in non-small cell lung cancer H1299 cell at 280.0 uM concentration and level of cell viability determined in MTT assay; type: functional
NCI-H1299 [22] = assay: Compound was tested for human telomerase reverse transcriptase-SEAP (hTERT-SEAP) activity in non-small cell lung cancer H1299 cell at 2.8 uM concentration; type: functional
BJ [23] = assay: hTERT-SEAP (Human telomerase reverse transcriptase-SEAP) activity in immortalized hTERT-BJI at 28.0 uM concentration and level of cell viability determined in MTT assay; type: functional
NCI-H1299 [24] = assay: Compound was tested for human telomerase reverse transcriptase-SEAP (hTERT-SEAP) activity in non-small cell lung cancer H1299 cell at 280.0 uM concentration; type: functional
BJ [25] = assay: Compound was tested for human telomerase reverse transcriptase-SEAP (hTERT-SEAP) activity in immortalized hTERT-BJI at 28.0 uM concentration; type: functional
NCI-H1299 [26] = assay: hTERT-SEAP (Human telomerase reverse transcriptase-SEAP) activity in non-small cell lung cancer H1299 cell at 28 uM concentration and level of cell viability determined in MTT assay; type: functional
BJ [27] = assay: hTERT-SEAP (Human telomerase reverse transcriptase-SEAP) activity in immortalized hTERT-BJI at 2.8 uM concentration and level of cell viability determined in MTT assay; type: functional
BJ [28] = assay: Compound was tested for human telomerase reverse transcriptase-SEAP (hTERT-SEAP) activity in immortalized hTERT-BJI at 280.0 uM concentration; type: functional
BJ [29] = assay: hTERT-SEAP (Human telomerase reverse transcriptase-SEAP) activity in immortalized hTERT-BJI at 280.0 uM concentration and level of cell viability determined in MTT assay; type: functional
BJ [30] = assay: Compound was tested for human telomerase reverse transcriptase-SEAP (hTERT-SEAP) activity in immortalized hTERT-BJI at 2.8 uM concentration; type: functional
BJ [31] = assay: Compound was tested for human telomerase reverse transcriptase-SEAP (hTERT-SEAP) activity in immortalized hTERT-BJI at 190.0 uM concentration; type: functional
NCI-H1299 [32] = assay: hTERT-SEAP (Human telomerase reverse transcriptase-SEAP) activity in non-small cell lung cancer H1299 cell at 1.9 uM concentration and level of cell viability determined in MTT assay; type: functional
NCI-H1299 [33] = assay: Compound was tested for human telomerase reverse transcriptase-SEAP (hTERT-SEAP) activity in non-small cell lung cancer H1299 cell at 1.9 uM concentration; type: functional
NCI-H1299 [34] = assay: Compound was tested for human telomerase reverse transcriptase-SEAP (hTERT-SEAP) activity in non-small cell lung cancer H1299 cell at 19 uM concentration; type: functional
NCI-H1299 [35] = assay: hTERT-SEAP (Human telomerase reverse transcriptase-SEAP) activity in non-small cell lung cancer H1299 cell at 190.0 uM concentration and level of cell viability determined in MTT assay; type: functional
BJ [36] = assay: Compound was tested for human telomerase reverse transcriptase-SEAP (hTERT-SEAP) activity in immortalized hTERT-BJI at 19 uM concentration; type: functional
BJ [37] = assay: hTERT-SEAP (Human telomerase reverse transcriptase-SEAP) activity in immortalized hTERT-BJI at 19 uM concentration and level of cell viability determined in MTT assay; type: functional
NCI-H1299 [38] = assay: hTERT-SEAP (Human telomerase reverse transcriptase-SEAP) activity in non-small cell lung cancer H1299 cell at 19 uM concentration and level of cell viability determined in MTT assay; type: functional
NCI-H1299 [39] = assay: Compound was tested for human telomerase reverse transcriptase-SEAP (hTERT-SEAP) activity in non-small cell lung cancer H1299 cell at 190.0 uM concentration; type: functional
BJ [40] = assay: hTERT-SEAP (Human telomerase reverse transcriptase-SEAP) activity in immortalized hTERT-BJI at 190.0 uM concentration and level of cell viability determined in MTT assay; type: functional
NCI-H1299 [41] = assay: (§1) hTERT-SEAP (Human telomerase reverse transcriptase-SEAP) activity in non-small cell lung cancer H1299 cell at 2.3 uM concentration and level of cell viability determined in MTT assay; type: functional
NCI-H1299 [42] = assay: as §1; type: functional; remark: listed apart in the source
NCI-H1299 [43] = assay: hTERT-SEAP (Human telomerase reverse transcriptase-SEAP) activity in non-small cell lung cancer H1299 cell at 23 uM concentration and level of cell viability determined in MTT assay; type: functional
NCI-H1299 [44] = assay: (§2) Compound was tested for human telomerase reverse transcriptase-SEAP (hTERT-SEAP) activity in non-small cell lung cancer H1299 cell at 2.3 uM concentration; type: functional
BJ [45] = assay: hTERT-SEAP (Human telomerase reverse transcriptase-SEAP) activity in immortalized hTERT-BJI at 23 uM concentration and level of cell viability determined in MTT assay; type: functional
NCI-H1299 [46] = assay: hTERT-SEAP (Human telomerase reverse transcriptase-SEAP) activity in non-small cell lung cancer H1299 cell at 230.0 uM concentration and level of cell viability determined in MTT assay; type: functional
NCI-H1299 [47] = assay: Compound was tested for human telomerase reverse transcriptase-SEAP (hTERT-SEAP) activity in non-small cell lung cancer H1299 cell at 23 uM concentration; type: functional
BJ [48] = assay: Compound was tested for human telomerase reverse transcriptase-SEAP (hTERT-SEAP) activity in immortalized hTERT-BJI at 23 uM concentration; type: functional
BJ [49] = assay: hTERT-SEAP (Human telomerase reverse transcriptase-SEAP) activity in immortalized hTERT-BJI at 230.0 uM concentration and level of cell viability determined in MTT assay; type: functional
NCI-H1299 [50] = assay: Compound was tested for human telomerase reverse transcriptase-SEAP (hTERT-SEAP) activity in non-small cell lung cancer H1299 cell at 230.0 uM concentration; type: functional
BJ [51] = assay: Compound was tested for human telomerase reverse transcriptase-SEAP (hTERT-SEAP) activity in immortalized hTERT-BJI at 230.0 uM concentration; type: functional
NCI-H1299 [52] = assay: as §2; type: functional; remark: listed apart in the source

SMILES: Nc1ccccc1Sc1cccc2c1C(=O)c1cccc(Sc3ccccc3N)c1C2=O
- Relative SEAP activity (BJ [1]): 115%
- Relative SEAP activity (BJ [2]): 136%
- Relative SEAP activity (BJ [3]): 141%
- Relative SEAP activity (BJ [4]): 102%
- Relative viability (NCI-H1299 [5]): 14%
- Relative SEAP activity (BJ [6]): 122%
- Relative viability (BJ [7]): 25%
- Relative SEAP activity (NCI-H1299 [8]): 59%
- Relative viability (BJ [9]): 103%
- Relative viability (BJ [10]): 109%
- Relative viability (BJ [11]): 48%
- Relative SEAP activity (NCI-H1299 [12]): 96%
- Relative SEAP activity (NCI-H1299 [13]): 108%
- Relative viability (BJ [14]): 108%
- Relative SEAP activity (BJ [15]): 103%
- Relative viability (BJ [16]): 107%
- Relative viability (NCI-H1299 [17]): 50%
- Relative viability (NCI-H1299 [18]): 94%

SMILES: O=C1c2cccc(SCCO)c2C(=O)c2cccc(SCCO)c21
- Relative SEAP activity (NCI-H1299 [19]): 76%
- Relative viability (NCI-H1299 [20]): 54%
- Relative viability (NCI-H1299 [21]): 36%
- Relative SEAP activity (NCI-H1299 [22]): 97%
- Relative viability (BJ [23]): 49%
- Relative SEAP activity (NCI-H1299 [24]): 45%
- Relative SEAP activity (BJ [25]): 98%
- Relative viability (NCI-H1299 [26]): 29%
- Relative viability (BJ [27]): 94%
- Relative SEAP activity (BJ [28]): 71%
- Relative viability (BJ [29]): 23%
- Relative SEAP activity (BJ [30]): 104%

SMILES: O=C(Oc1cccc2c1C(=O)c1cccc(OC(=O)c3ccccc3Cl)c1C2=O)c1ccccc1Cl
- Relative SEAP activity (BJ [31]): 97%
- Relative viability (NCI-H1299 [32]): 74%
- Relative SEAP activity (NCI-H1299 [33]): 93%
- Relative SEAP activity (NCI-H1299 [34]): 101%
- Relative viability (NCI-H1299 [35]): 30%
- Relative SEAP activity (BJ [36]): 116%
- Relative viability (BJ [37]): 92%
- Relative viability (NCI-H1299 [38]): 34%
- Relative SEAP activity (NCI-H1299 [39]): 97%
- Relative viability (BJ [40]): 40%

SMILES: O=C(Oc1cccc2c1C(=O)c1cccc(OC(=O)c3ccc(Cl)cc3)c1C2=O)c1ccc(Cl)cc1
- Relative SEAP activity (BJ [31]): 107%
- Relative viability (NCI-H1299 [32]): 91%
- Relative SEAP activity (NCI-H1299 [33]): 106%
- Relative SEAP activity (NCI-H1299 [34]): 106%
- Relative viability (NCI-H1299 [35]): 31%
- Relative SEAP activity (BJ [36]): 123%
- Relative viability (BJ [37]): 89%
- Relative viability (NCI-H1299 [38]): 57%
- Relative SEAP activity (NCI-H1299 [39]): 97%
- Relative viability (BJ [40]): 48%

SMILES: O=C1c2cccc(Sc3ncccn3)c2C(=O)c2cccc(Sc3ncccn3)c21
- Relative viability (NCI-H1299 [41]): 107%
- Relative viability (NCI-H1299 [42]): 104%
- Relative viability (NCI-H1299 [43]): 99%
- Relative SEAP activity (NCI-H1299 [44]): 105%
- Relative viability (BJ [45]): 103%
- Relative viability (NCI-H1299 [46]): 44%
- Relative SEAP activity (NCI-H1299 [47]): 110%
- Relative SEAP activity (BJ [48]): 125%
- Relative viability (BJ [49]): 73%
- Relative SEAP activity (NCI-H1299 [50]): 49%
- Relative SEAP activity (BJ [51]): 61%
- Relative SEAP activity (NCI-H1299 [52]): 137%
